Laboratory results: the NIST ThermoML archive (doi:10.1016/j.fluid.2014.09.007)
± gives the expanded uncertainty stated by the source.

Tests used:
[1] = Molar enthalpy of transition or fusion; conditions: Crystal; DSC
[2] = Crystal
[3] = Solid-liquid equilibrium temperature; conditions: Crystal, visual observation

Row | Molar enthalpy of transition or fusion [1] [kcal/mol] | Normal melting temperature ([2]; DTA) [°C] | Normal melting temperature ([2]; visual observation) [°C] | Solid-liquid equilibrium temperature ([3]; 100 kPa) [K] | Solid-liquid equilibrium temperature ([3]; 20000 kPa) [K] | Solid-liquid equilibrium temperature ([3]; 40000 kPa) [K] | Solid-liquid equilibrium temperature ([3]; 60000 kPa) [K] | Solid-liquid equilibrium temperature ([3]; 80000 kPa) [K] | Structure (SMILES)
1 | 9.18 ± 0.311 | -0.9 ± 0.5 | -0.8 ± 0.5 | 272.3 ± 0.4 | 276.4 ± 0.5 | 280.3 ± 0.5 | 284 ± 0.5 | 287.4 ± 0.5 | CCCCCCCCCCCC(=O)OCC [ethyl dodecanoate]
2 | 13.3 ± 0.359 | 24.2 ± 0.5 | 24.5 ± 0.5 | 297.6 ± 0.4 | 302 ± 0.5 | 306.4 ± 0.5 | 310.3 ± 0.5 | 314.3 ± 0.5 | CCCCCCCCCCCCCCCC(=O)OCC [ethyl hexadecanoate]
3 | 11.3 ± 0.335 | 13.2 ± 0.5 | 12.7 ± 0.5 | 285.8 ± 0.4 | 289.9 ± 0.5 | 294.1 ± 0.5 | 298 ± 0.5 | 301.9 ± 0.5 | CCCCCCCCCCCCCC(=O)OCC [ethyl tetradecanoate]
